Our source for the IC50, melting point and inhibition values is patent US6977254B2, “Hydroxy cyclohexenyl phenyl carboxamides tocolytic oxytocin receptor antagonists” (Wyeth, priority 2001, dated 2005).

Data set [1] has as its target T1, human V2 vasopressin receptor subtype (Homo sapiens, UniProt P30518).
T1 construct: host or cells: CHO cells, stably transfected (pZeoSV vector); membranes
Description: Vasopressin binding in CHO cell membranes expressing human vasopressin V2 subtype receptors ([3H]arginine vasopressin). The note with it: for IC50: value in parentheses. The source says:
Vasopressin Binding in Chinese Hamster Ovary Cell Membranes Expressing Human Vasopressin V2 Subtype Receptors
Chinese Hamster Ovary (CHO) cells stably transfected with the human V2 subtype receptors were obtained from M. Thibonnier, Case Western Reserve University School of Medicine, Cleveland, Ohio.
A. Passaging and Amplification of Cells:
CHO cells transfected with the human vasopressin V2 subtype receptors obtained from M. Thibonnier (pZeoSV vector) are allowed to grow to confluency (approx. >90%) in T-150 flasks under sterile conditions, in a cell culture medium of F-12 Nutrient Mixture (HAM) with L-glutamine (Gibco Cat. #11765-054) containing 15 mM HEPES (Gibco Cat. #15630-080), 1% antibiotic/antimycotic (add 5 mL 100×, Gibco Cat. #15240-062 per 500 mL F-12), 250 μg/mL Zeocin (add 1.25 mL of 100 mg/mL Invitrogen R-250-01 per 500 mL F-12) and 10% Fetal Bovine Serum (Qualified, heat inactivated, Gibco Cat. #16140-063). The medium is removed by aspiration and the cells washed with 10 mL of Hank's Balanced Salt solution (Gibco Cat. #14175-095). The salt solution is removed by aspiration and the cells trypsinized with 5 mL of trypsin-EDTA (0.05% trypsin, 0.53 mM EDTA-4Na, Gibco Cat. #25300-070) for 1 min. The trypsin is removed by aspiration and the cells dislodged by tapping. Cell Culture medium (e.g. 30 mL for 1:30 split) is immediately added and mixed well to inactivate trypsin. 1 mL of detached cells is added to new culture flasks containing fresh Cell Culture medium (e.g. into 25 mL per T-150 flask), and mixed gently. The cells are incubated at 37° C. in 5% CO2. The medium is changed at 3 to 4 day interval (or as appropriate). The cells grow to confluency (approx. >75%-95%) within 7-8 days. All steps are done under sterile conditions.
The cells are washed twice gently with Hank's Balanced Salt solution (e.g. use 10 mL per T-150 flask). The excess solution is removed and the cells bathed for 15-30 min. in an enzyme-free Cell Dissociation Buffer (e.g. use 8 mL Hank's Based, Gibco Cat. #13150-016 per T-150 flask) until cells are loosened. The contents are transferred to centrifuge tubes (50 mL size) kept in ice bath. All subsequent steps are done at 4° C. The tubes are centrifuged at 300×g for 15 min (1380 rpm on SORVAL, Model RT6000D, using rotor for 50 mL tubes). The supernatant is discarded and the cells suspended in homogeneizing buffer(10 mM Tris-HCl containing 0.25 M sucrose and 1 mM EDTA, pH 7.4) ensuring that the volume of the buffer is about ten times the volume of the cell pellet. The cells are pooled into a centrifuge tube (50 mL) and homogenized with Polytron at setting 6 for 10 sec. The homogenate is transferred into a Potter-Elvjehm homogeneizer and homogenized with 3 strokes. The homogenate is centrifuged at 1500×g for 60 min at 4° C. (3100 rpm using SORVAL, model RT6000D, using rotor for 50 mL tubes). The pellet is discarded. The supernatant is centrifuged at 100,000×g for 60 min. at 4° C. (Beckman L8-80M ultracentrifuge; spin at 37,500 rpm with rotor type 70 Ti for 50 mL tubes; 38,000 rpm with type 80Ti for 15 mL tubes; or 35,800 rpm with rotor type 45Ti). The supernantant is discarded and the pellet suspended in 3 to 4 mL of Tris buffer (50 mM TRIS-HCl, pH 7.4). The protein content is estimated by the Bradford or Lowry method. The volume of the membrane suspension is adjusted with the membrane buffer (50 mM Tris-HCl containing 0.1% BSA and 0.1 mM PMSF) to give 3.0 mg/mL (or as appropriate) of protein. The membranes are aliquoted and stored at −70° C.
C. Radioligand Binding Assay:
In wells of a 96-well format microtiter plate, is added 90, 110 or 130 μL (to make up a final volume of 200 μL) of assay buffer containing 50 mM of Tris-HCl (pH 7.4), […], 1 mg % aprotinin, 1 mg % leupeptin, 2 mg % 1,10-phenanthroline, 10 mg % trypsin inhibitor, and 0.1 mM PMSF. The inhibitors are added on the day of the experiment. […]

Bounds are passed on as bounds.

T1 sequence (P30518 whole entry): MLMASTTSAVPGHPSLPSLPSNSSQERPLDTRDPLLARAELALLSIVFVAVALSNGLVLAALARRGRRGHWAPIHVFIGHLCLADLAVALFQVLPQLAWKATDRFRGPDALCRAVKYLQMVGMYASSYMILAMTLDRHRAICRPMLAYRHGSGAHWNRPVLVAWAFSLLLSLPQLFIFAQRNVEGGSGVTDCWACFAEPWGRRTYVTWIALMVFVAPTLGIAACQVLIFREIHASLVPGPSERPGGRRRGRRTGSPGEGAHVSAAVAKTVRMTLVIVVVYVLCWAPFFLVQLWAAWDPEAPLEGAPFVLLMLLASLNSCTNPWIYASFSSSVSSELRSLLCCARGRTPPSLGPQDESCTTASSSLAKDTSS

One may read the IC50 as the concentration that inhibits the measured activity by half. For orientation: melting point means the temperature of the solid-liquid transition. Molecule `Cc1cc(C(=O)N2Cc3ccc(C(=O)N(C)C[C@H](O)[C@H]4OC(=O)O[C@@H]4[C@H](O)CO)n3Cc3ccccc32)ccc1C1=CCCCC1` [Example 6, 10-(4-Cyclohex-1-en-1-yl-3-methylbenzoyl)-N-((2S)-2-{(4R,5R)-5-[(1R)-1,2-dihydroxyethyl]-2-oxo-1,3-dioxolan-4-yl}-2-hydroxyethyl)-N-methyl-10,11-dihydro-5H-pyrrolo[2,1-c][1,4]benzodiazepine-3-carboxamide] registered a melting point of 166 to 175 °C. For the same molecule, in data set [1], the IC50 is 558 nM.
A word on the inhibition: it is the share of the control response that was lost under treatment. `Cc1cc(C(=O)N2Cc3ccc(C(=O)N(C)C[C@@H]4OC(=O)O[C@H]4[C@H](O)[C@H]4COC(=O)O4)n3Cc3ccccc32)ccc1C1=CCCCC1` [Example 7, 10-(4-Cyclohex-1-en-1-yl-3-methylbenzoyl)-N-[((4S,5S)-5-{(R)-hydroxy[(4R)-2-oxo-1,3-dioxolan-4-yl]methyl}-2-oxo-1,3-dioxolan-4-yl)methyl]-N-methyl-10,11-dihydro-5H-pyrrolo[2,1-c][1,4]benzodiazepine-3-carboxamide] returned a melting point of 162 to 168 °C. Also, the inhibition at 0.1 µM in data set [1] (100 nM, value without parentheses) turned out to be 14%.
Regarding `COC[C@@H](OC)[C@@H](OC)[C@H](OC)[C@H](CN(C)C(=O)c1ccc2n1Cc1ccccc1N(C(=O)c1ccc(C3=CCCCC3)c(C)c1)C2)OC` [Example 8, 10-(4-Cyclohex-1-en-1-yl-3-methylbenzoyl)-N-methyl-N-[(2S,3R,4R,5R)-2,3,4,5,6-pentamethoxyhexyl]-10,11-dihydro-5H-pyrrolo[2,1-c][1,4]benzodiazepine-3-carboxamide], the melting point lay in the range of 68 to 83 °C. Moreover, the IC50 in data set [1] was over 3000 nM.
